{"source": "patent US6395721B1", "about": "“Low potency unpreserved sterile topical corticosteroid compositions for dermatitis” (priority 2000, dated 2002)", "origin": "cited, not measured here", "key": {"skin of human volunteers": {"system": "skin of human volunteers", "parameters": "key to Ranking of Topical steroids for Psoriasis (potency group): I: Group 1 is the most potent; potency descends with each group to Group VII; III: potency descends with each group to Group VII; IV: potency descends with each group to Group VII; potency descends with each group to Group VII; potency descends with each group to Group VII; Group VII, which is least potent", "conditions": "for potency of corticosteroid (in words): as worded for contemplated compositions, aldomethasone and desonide at 0.05%; for potency rating of steroid compositions on a scale of 1 to 7, with 7 being the least potent: rating in words, Cornell and Stoughton; for Ranking of Topical steroids for Psoriasis (potency group): no significant difference of agents within any given group"}, "stripped skin": {"system": "stripped skin", "conditions": "applied to stripped skin, which develops erythema"}}}
{"compound": "CC1(C)O[C@@H]2C[C@H]3[C@@H]4CCC5=CC(=O)C=C[C@]5(C)[C@H]4[C@@H](O)C[C@]3(C)[C@]2(C(=O)CO)O1", "note": "[desonide]", "values": [{"measurement": "potency of corticosteroid (in words)", "setting": "skin of human volunteers", "value": "intermediate potency"}, {"measurement": "potency rating of steroid compositions on a scale of 1 to 7, with 7 being the least potent", "setting": "skin of human volunteers", "value": "Among the least potent steroids"}]}
{"compound": "C[C@]12CCC(=O)C=C1CC[C@@H]1[C@@H]2[C@@H](O)C[C@@]2(C)[C@H]1CC[C@]2(O)C(=O)CO", "note": "[hydrocortisone]", "values": [{"measurement": "potency rating of steroid compositions on a scale of 1 to 7, with 7 being the least potent", "setting": "skin of human volunteers", "value": "Among the least potent steroids"}, {"measurement": "Ranking of Topical steroids for Psoriasis (potency group)", "setting": "skin of human volunteers", "value": "VII."}, {"measurement": "effect on erythema of stripped skin", "setting": "stripped skin", "value": "develop blanching"}]}
{"compound": "CCCCC(=O)O[C@]1(C(=O)CO)CC[C@H]2[C@@H]3CCC4=CC(=O)CC[C@]4(C)[C@H]3[C@@H](O)C[C@@]21C", "note": "[hydrocortisone valerate]", "values": [{"measurement": "potency rating of steroid compositions on a scale of 1 to 7, with 7 being the least potent", "setting": "skin of human volunteers", "value": "Among the least potent steroids"}]}
{"compound": "aldomethasone diproprionate", "values": [{"measurement": "potency of corticosteroid (in words)", "setting": "skin of human volunteers", "value": "low potency"}, {"measurement": "potency rating of steroid compositions on a scale of 1 to 7, with 7 being the least potent", "setting": "skin of human volunteers", "value": "Among the least potent steroids"}]}
{"compound": "C[C@H]1C[C@H]2[C@@H]3CCC4=CC(=O)C=C[C@]4(C)[C@@]3(F)[C@@H](O)C[C@]2(C)[C@@]1(O)C(=O)CCl", "note": "[Clobetasol]", "values": [{"measurement": "potency rating of steroid compositions on a scale of 1 to 7, with 7 being the least potent", "setting": "skin of human volunteers", "value": "among the most potent steroids"}]}
{"compound": "aldomethasone", "values": [{"measurement": "potency of corticosteroid (in words)", "setting": "skin of human volunteers", "value": "low potency"}]}
{"compound": "CCCC(=O)O[C@]1(C(=O)CO)CC[C@H]2[C@@H]3CCC4=CC(=O)CC[C@]4(C)[C@H]3[C@@H](O)C[C@@]21C", "note": "[hydrocortisone butyrate]", "values": [{"measurement": "potency rating of steroid compositions on a scale of 1 to 7, with 7 being the least potent", "setting": "skin of human volunteers", "value": "Among the least potent steroids"}]}
{"compound": "flumethalone", "values": [{"measurement": "Ranking of Topical steroids for Psoriasis (potency group)", "setting": "skin of human volunteers", "value": "VII."}]}
{"compound": "C[C@]12C=CC(=O)C=C1CC[C@@H]1[C@@H]2[C@@H](O)C[C@@]2(C)[C@H]1CC[C@]2(O)C(=O)CO", "note": "[prednisolone]", "values": [{"measurement": "Ranking of Topical steroids for Psoriasis (potency group)", "setting": "skin of human volunteers", "value": "VII."}]}
{"compound": "C[C@]12CCC(=O)C=C1CC[C@@H]1[C@@H]2C(=O)C[C@@]2(C)[C@H]1CC[C@]2(O)C(=O)CO", "note": "[cortisone]", "values": [{"measurement": "potency rating of steroid compositions on a scale of 1 to 7, with 7 being the least potent", "setting": "skin of human volunteers", "value": "Among the least potent steroids"}]}
